Laboratory results taken from PubChem BioAssay (NCI).
Where “and” joins values, the source holds several entries; their conditions need not be identical. Equal entries are not always repeated.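 Method: 48-hour compound exposure of cells in 96-well plates, five concentrations, linear interpolation of endpoints. GI50 marks 50% less growth. TGI denotes the concentration required for complete inhibition of growth.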

How the values were obtained:
Test in all cases: NCI tumour cell line growth inhibition, 48 h
OVCAR-8 ovarian = tested on: OVCAR-8 ovarian
SN12C renal = tested on: SN12C renal
NCI-H226 lung = tested on: NCI-H226 lung
UO-31 renal = tested on: UO-31 renal
SF-539 CNS = tested on: SF-539 CNS
A549 NSCLC = tested on: A549 NSCLC
TK-10 renal = tested on: TK-10 renal
NCI-H522 lung = tested on: NCI-H522 lung
SNB-75 CNS = tested on: SNB-75 CNS
ACHN renal = tested on: ACHN renal
LOX IMVI melanoma = tested on: LOX IMVI melanoma
MDA-MB-435 = tested on: MDA-MB-435

Row | SMILES | TGI (OVCAR-8 ovarian) | TGI (SN12C renal) | TGI (NCI-H226 lung) [µM] | TGI (UO-31 renal) | TGI (SF-539 CNS) | TGI (A549 NSCLC) | TGI (TK-10 renal) | TGI (NCI-H522 lung) | TGI (SNB-75 CNS) | TGI (ACHN renal) | TGI (LOX IMVI melanoma) [µM] | GI50 (SN12C renal) [µM] | GI50 (NCI-H226 lung) [µM] | GI50 (TK-10 renal) [µM] | GI50 (MDA-MB-435) [µM] | TGI (MDA-MB-435) [µM] | GI50 (ACHN renal) [µM] | GI50 (UO-31 renal) | GI50 (NCI-H522 lung)
1 | O=C(CSC(=S)N1CCOCC1)Nc1nc2c(s1)CCCC2 | > 100 µM | > 100 µM | > 100 | > 100 µM | > 100 µM | > 100 µM | > 100 µM | 70.2 µM | > 100 µM | > 100 µM | > 100 | – | – | – | – | – | – | – | –
2 | CCN(CC)C(=S)SS(=O)(=O)c1ccc([N+](=O)[O-])cc1 | 42.5 µM | > 100 µM | > 100 | 47 µM | 40 µM | > 100 µM | > 100 µM | – | – | > 100 µM | 33.8 | 26.9 | 83.8 | 43.1 | 23.2 | 54.7 | 36.5 | – | –
3 | CCC1C(c2cc(OC)c(OC)c(OC)c2)c2cc3c(cc2OC1N1CCOCC1)OCO3 (stereo unspecified) | 17.6 µM | 28.6 µM | 27.6 | 17.5 µM | – | 17.8 µM | – | 21.8 µM | 26.3 µM | 16.1 µM | 10.5 | – | – | – | – | – | – | – | –
4 | COC(=O)c1c(C)cccc1/C=C1\Cc2cc(C)cc(C)c2C1=O | > 100 µM | > 100 µM | > 100 | > 100 µM | > 100 µM | > 100 µM | 73 µM | > 100 µM | 38.4 µM | > 100 µM | > 100 | – | – | – | – | – | – | – | –
5 | CC(C)=CCSC1CC2C(CC1(C)O)C2(C)C (stereo unspecified) | 34.3 µM and 27.1 µM | 32 µM and 29.6 µM | 27.5 | 28.2 µM and 20.8 µM | 32.3 µM and 29.6 µM | 24.1 µM and 30.2 µM | 32.3 µM and 30.8 µM | 26.9 µM and 18.8 µM | 30.1 µM and 23.7 µM | 31 µM and 31.3 µM | 29.7 | – | – | – | – | – | – | 14.4 µM and 6.12 µM | 13.3 µM and 4.38 µM
6 | COC(=O)c1csc(-c2nc(CCNC(=O)OC(C)(C)C)sc2Br)n1 | > 100 µM | > 100 µM | > 100 | > 100 µM | > 100 µM | > 100 µM | > 100 µM | – | > 100 µM | > 100 µM | – | – | – | – | – | > 100 | – | – | –
7 | CC(=O)NC1=C(C)C(=O)c2c(nc3n2CCC3O)C1=N (stereo unspecified) | 16.7 µM | 19 µM | 33.1 | 46.6 µM | 13.9 µM | > 100 µM | 85.4 µM | 19.6 µM | 49.1 µM | 37.7 µM | 19.2 | – | – | – | – | – | – | – | –
8 | CCC(CC)n1c(C)nc2c1C(=O)c1ccccc1C2=O | > 100 µM | > 100 µM | > 100 | > 100 µM | > 100 µM | > 100 µM | > 100 µM | > 100 µM | > 100 µM | > 100 µM | 54.7 | – | – | – | – | – | – | – | –
9 | NC(=O)N1N=C2c3ccccc3SC[C@H]2[C@@H]1c1ccccc1 | 65.9 µM | > 100 µM | 53.2 | 82.9 µM | – | > 100 µM | 92.6 µM | – | – | > 100 µM | 32.4 | – | – | – | – | – | – | – | –
10 | COc1ccc(C(C#N)NNc2nc(C)cc(=O)[nH]2)cc1OC (stereo unspecified) | > 100 µM | > 100 µM | > 100 | > 100 µM | > 100 µM | > 100 µM | > 100 µM | > 100 µM | > 100 µM | > 100 µM | > 100 | – | – | – | – | – | – | – | –
11 | S=C1N=C(Cl)C2(NN1)c1ccccc1-c1ccccc12 | > 10 µM | > 10 µM | > 10 | > 10 µM | > 10 µM | > 10 µM | > 10 µM | – | > 10 µM | – | > 10 | – | – | – | – | – | – | – | –
12 | COC(=O)C1C2C=CC(C2)N1[C@@H](C)c1ccccc1 (stereo partly specified) | > 100 µM | > 100 µM | – | > 100 µM | > 100 µM | > 100 µM | > 100 µM | > 100 µM | > 100 µM | > 100 µM | > 100 | – | – | – | – | – | – | – | –
13 | COc1cccc(-c2cc(=O)c3c(C)ccnc3[nH]2)c1 | > 100 µM | > 100 µM | 0.0742 | > 100 µM | – | > 100 µM | > 100 µM | 0.226 µM | 0.0417 µM | > 100 µM | > 100 | – | – | – | – | – | – | – | –
14 | CC(C)=CCC/C(C)=C/CC/C(C)=C/CC/C(C)=C/CC/C(C)=C\CC/C(C)=C/CC/C(C)=C/CC/C(C)=C/Cc1cc(O)ccc1O | 3.42 µM | > 100 µM | 4.65 | 5.71 µM | 3.19 µM | > 22.6 µM | > 29.4 µM | 4.34 µM | 11.6 µM | > 39.8 µM | – | – | – | – | – | – | – | – | –
15 | CN=S(=O)(c1ccccc1)c1ccccc1 | > 100 µM | > 100 µM | > 100 | > 100 µM | > 100 µM | > 100 µM | > 100 µM | > 100 µM | > 100 µM | > 100 µM | > 100 | – | – | – | – | – | – | – | –
16 | CC(C)C1CC(O)O[C@@H]([C@@H](C)[C@H]2CC(=O)[C@@H]3[C@@H]4[C@@H](O)[C@H](O)[C@H]5[C@@H](O)[C@H](O)CC[C@]5(C)[C@H]4CC[C@]23C)C1 (stereo partly specified) | > 100 µM | > 100 µM | > 100 | > 100 µM | > 100 µM | > 100 µM | > 100 µM | > 100 µM | 54.3 µM | 62.1 µM | > 100 | – | – | – | – | – | – | – | –
